Laboratory results taken from ChEMBL document CHEMBL3045673, “Synthesis of some novel 2-substituted benzoxazoles as anticancer, antifungal, and antimicrobial agents” (2008).
Active and inactive are the calls of the source. The calls are words filed in the database; no cut-off is given here.

Key:
Aspergillus flavus = assay: Antifungal activity against Aspergillus flavus at 50 ug/ml after 48 hr by agar plate diffusion method; assay type: functional
HepG2 = assay: Cytotoxicity against Homo sapiens (human) HepG2 cells by MTT assay; assay type: functional, cell-based
Klebsiella pneumoniae = assay: Antibacterial activity against Klebsiella pneumoniae at 10 ug/ml after 24 hr by disk diffusion method; assay type: functional; settings: read-out: DIZ
Staphylococcus aureus = assay: Antibacterial activity against Staphylococcus aureus at 10 ug/ml after 24 hr by disk diffusion method; assay type: functional; settings: read-out: DIZ
WiDr = assay: Cytotoxicity against Homo sapiens (human) WiDr cells by MTT assay; assay type: functional, cell-based
Aspergillus niger = assay: Antifungal activity against Aspergillus niger at 50 ug/ml after 48 hr by agar plate diffusion method; assay type: functional
Pseudomonas aeruginosa = assay: Antibacterial activity against Pseudomonas aeruginosa at 10 ug/ml after 24 hr by disk diffusion method; assay type: functional; settings: read-out: DIZ
HeLa = assay: Cytotoxicity against Homo sapiens (human) HeLa cells by MTT assay; assay type: functional, cell-based
MCF7 = assay: Cytotoxicity against Homo sapiens (human) MCF7 cells by MTT assay; assay type: functional, cell-based

For `COc1ccc(N/N=C(\C#N)c2nc3cc(Cl)ccc3o2)cc1`, the inhibition at 50 µg/mL (Aspergillus flavus) was 50%, the Activity (HepG2) was “Active” and the zone of inhibition at 10 µg/mL (Klebsiella pneumoniae) was 5 mm. For the same molecule, the zone of inhibition at 10 µg/mL (Staphylococcus aureus) was 10 mm, the Activity (WiDr) was “Active” and the inhibition at 50 µg/mL (Aspergillus niger) was 65%. For the same molecule, the zone of inhibition at 10 µg/mL (Pseudomonas aeruginosa) was 5 mm, the Activity (HeLa) was “Active” and the Activity (MCF7) was “Active”.

With `COc1ccc(/C=C(\C#N)c2nc3cc(Cl)ccc3o2)cc1` the inhibition at 50 µg/mL (Aspergillus flavus) was 65%, the Activity (HepG2) was “Active” and the zone of inhibition at 10 µg/mL (Klebsiella pneumoniae) was 10 mm. The zone of inhibition at 10 µg/mL (Staphylococcus aureus) was 5 mm, the Activity (WiDr) was “Active” and the inhibition at 50 µg/mL (Aspergillus niger) was 65%. The zone of inhibition at 10 µg/mL (Pseudomonas aeruginosa) was 10 mm, the Activity (HeLa) was “Active” and the Activity (MCF7) was “Active”.

With `N#C/C(=N\Nc1ccc(Br)cc1)c1nc2cc(Cl)ccc2o1` the Activity (HepG2) was “Active”, the zone of inhibition at 10 µg/mL (Klebsiella pneumoniae) was 10 mm and the zone of inhibition at 10 µg/mL (Staphylococcus aureus) was 10 mm. The Activity (WiDr) was “inactive”, the zone of inhibition at 10 µg/mL (Pseudomonas aeruginosa) was 10 mm and the Activity (HeLa) was “Active”. For the same molecule, the Activity (MCF7) was “Active”.

With `N#CC(=C1CCCCC1)c1nc2cc(Cl)ccc2o1` the inhibition at 50 µg/mL (Aspergillus flavus) was 75%, the Activity (HepG2) was “Active” and the zone of inhibition at 10 µg/mL (Klebsiella pneumoniae) was 5 mm. The zone of inhibition at 10 µg/mL (Staphylococcus aureus) was 10 mm, the Activity (WiDr) was “Active” and the inhibition at 50 µg/mL (Aspergillus niger) was 60%. The zone of inhibition at 10 µg/mL (Pseudomonas aeruginosa) was 10 mm, the Activity (HeLa) was “Active” and the Activity (MCF7) was “inactive”.

For `COc1cc(/C=C(\C#N)c2nc3cc(Cl)ccc3o2)cc(OC)c1OC`, the inhibition at 50 µg/mL (Aspergillus flavus) was 85%, the Activity (HepG2) was “Active” and the zone of inhibition at 10 µg/mL (Klebsiella pneumoniae) was 10 mm. The zone of inhibition at 10 µg/mL (Staphylococcus aureus) was 15 mm, the Activity (WiDr) was “Active” and the inhibition at 50 µg/mL (Aspergillus niger) was 80%. The zone of inhibition at 10 µg/mL (Pseudomonas aeruginosa) was 15 mm, the Activity (HeLa) was “Active” and the Activity (MCF7) was “Active”.

With `N#C/C(=N\Nc1ccc(Cl)cc1)c1nc2cc(Cl)ccc2o1` the inhibition at 50 µg/mL (Aspergillus flavus) was 65%, the Activity (HepG2) was “inactive” and the zone of inhibition at 10 µg/mL (Klebsiella pneumoniae) was 10 mm. The zone of inhibition at 10 µg/mL (Staphylococcus aureus) was 5 mm, the Activity (WiDr) was “inactive” and the inhibition at 50 µg/mL (Aspergillus niger) was 70%. The zone of inhibition at 10 µg/mL (Pseudomonas aeruginosa) was 10 mm, the Activity (HeLa) was “inactive” and the Activity (MCF7) was “Active”.

For `N#C/C(=C\c1ccccc1)c1nc2cc(Cl)ccc2o1`, the inhibition at 50 µg/mL (Aspergillus flavus) was 60%, the Activity (HepG2) was “inactive” and the zone of inhibition at 10 µg/mL (Klebsiella pneumoniae) was 10 mm. The zone of inhibition at 10 µg/mL (Staphylococcus aureus) was 10 mm, the Activity (WiDr) was “inactive” and the inhibition at 50 µg/mL (Aspergillus niger) was 65%. The zone of inhibition at 10 µg/mL (Pseudomonas aeruginosa) was 10 mm, the Activity (HeLa) was “inactive” and the Activity (MCF7) was “Active”.

In the case of `COc1cc(/C=C(\C#N)c2nc3cc(F)ccc3o2)cc(OC)c1OC`, the inhibition at 50 µg/mL (Aspergillus flavus) is reported as 90%, the Activity (HepG2) is reported as “Active” and the zone of inhibition at 10 µg/mL (Klebsiella pneumoniae) is reported as 15 mm. For the same molecule, the zone of inhibition at 10 µg/mL (Staphylococcus aureus) was 20 mm, the Activity (WiDr) was “Active” and the inhibition at 50 µg/mL (Aspergillus niger) was 95%. The zone of inhibition at 10 µg/mL (Pseudomonas aeruginosa) was 20 mm, the Activity (HeLa) was “Active” and the Activity (MCF7) was “Active”.

In the case of `N#C/C(=N\Nc1ccccc1)c1nc2cc(Cl)ccc2o1`, the Activity (HepG2) is reported as “Active”, the zone of inhibition at 10 µg/mL (Klebsiella pneumoniae) is reported as 10 mm and the zone of inhibition at 10 µg/mL (Staphylococcus aureus) is reported as 10 mm. The Activity (WiDr) was “inactive”, the zone of inhibition at 10 µg/mL (Pseudomonas aeruginosa) was 10 mm and the Activity (HeLa) was “Active”. The Activity (MCF7) was “inactive”.

With `N#C/C(=C\c1ccc(O)cc1)c1nc2cc(Cl)ccc2o1` the inhibition at 50 µg/mL (Aspergillus flavus) was 60%, the Activity (HepG2) was “Active” and the zone of inhibition at 10 µg/mL (Klebsiella pneumoniae) was 10 mm. For the same molecule, the zone of inhibition at 10 µg/mL (Staphylococcus aureus) was 10 mm, the Activity (WiDr) was “inactive” and the inhibition at 50 µg/mL (Aspergillus niger) was 50%. For the same molecule, the zone of inhibition at 10 µg/mL (Pseudomonas aeruginosa) was 10 mm, the Activity (HeLa) was “Active” and the Activity (MCF7) was “inactive”.

With `N#CC(=C1CCCC1)c1nc2cc(Cl)ccc2o1` the inhibition at 50 µg/mL (Aspergillus flavus) was 60%, the Activity (HepG2) was “Active” and the zone of inhibition at 10 µg/mL (Klebsiella pneumoniae) was 10 mm. For the same molecule, the zone of inhibition at 10 µg/mL (Staphylococcus aureus) was 15 mm, the Activity (WiDr) was “Active” and the inhibition at 50 µg/mL (Aspergillus niger) was 75%. The zone of inhibition at 10 µg/mL (Pseudomonas aeruginosa) was 10 mm, the Activity (HeLa) was “Active” and the Activity (MCF7) was “Active”.
